Measurements reported in patent publication US6706700B2, “14β,15β-methylene-17α-hydroxymethyl-androgens” (Akzo-Nobel, N.V., priority 1999, dated 2004).

Tested on: human androgen receptor
Experiment: androgenic activity rating (procedures described above; which test underlies the rating is not stated)
Parameters: key: −: no androgenic activity found; +: androgenic activity found; ++: high androgenic activity; +++: excellent androgenic activity; prodrug
Settings: compounds of the invention; rating scheme of Example 18
Description: Androgenic activity can be measured in various ways. Thus, the potency of androgens can be determined in vitro using the cytoplasmic androgen receptor from human breast tumor cells (MCF-7 cell line); see Bergink, E. W. et al, Comparison of the receptor binding properties of nandrolone and testosterone under in vitro and in vivo conditions, J. Steroid Biochem. 22, 831-836 (1985). It is also possible to use Chinese hamster ovary (CHO) cells transfected with the human androgen receptor (incubation time 16 h, temperature 4° C.) and compared with the affinity of 5α-dihydrotestosterone [according to the procedure described by Bergink, E. W. et al, J. Steroid Biochem. 19, 1563-1570 (1983)]. The transactivative androgen activity of the compounds of the invention can be measured, e.g. in Chinese hamster ovary cells (CHO) transfected with the human androgen receptor (hAR), in combination with a mouse mammary tumor virus (MMTV), and luciferase receptor gene (incubation time 16 h, temperature 37° C.) and compared with the activity of 5α-dihydrotestosterone [according to the procedure described by Schoonen, W. G. E. J. et al, Analyt. Biochem. 261, 222-224 (1998)]. For the in vivo potency determination of androgens the classical Hershberger test can be used. In this test the androgenic (increase in prostate weight) and anabolic activities [increase of the musculus levator ani (MLA)] of a compound are tested in immature castrated rats after daily administration for 7 days; see Hershberger, L. G. et al, Myotrophic activity of 19-Nortestosterone and other steroids determined by modified levator ani muscle method, Proceedings of the society for experimental biology and medicine 83, 175-180 (1953). Additionally, the effect of an androgenic compound on LH suppression can be tested in mature castrated rats according to Kumar, N. et al, The biological activity of 7alpha-methyl-19-nortestosterone is not amplified in male reproductive tract as is that of testosterone, Endocrinology 130, 3677-3683 (1992).
The compounds according to the invention and four reference compounds were tested for drogenic activity (the procedures for which have been described above) and rated according the following scheme: […]

SMILES	Res. (androgenic activity)
C[C@@H]1CC2=CC(=O)CC[C@@H]2[C@H]2CC[C@]3(C)[C@H](CO)C[C@H]4C[C@]43[C@@H]21 [Example 1, (7α,14β,15β,17α)-17-(Hydroxymethyl)-7-methyl-14,15-methyleneestr-4-en-3-one]	+++
C[C@@H]1CC2=C(CCC(=O)C2)[C@H]2CC[C@]3(C)[C@H](CO)C[C@H]4C[C@]43[C@H]12 [Example 2, (7α,14,β15β,17α)-17-(Hydroxymethyl)-7-methyl-14,15-methyleneestr-5(10)-en-3-one]	+
C[C@@H]1CC2=CC(=O)CCC2=C2CC[C@]3(C)[C@H](CO)C[C@H]4C[C@]43[C@@H]21 [Example 3, (7α,14β,15β17α)-17-(Hydroxymethyl)-7-methyl-14,15-methyleneestra-4,9-dienes-3-one]	++
CC1=C2C[C@@H](C)[C@@H]3[C@H](CC[C@]4(C)[C@H](CO)C[C@H]5C[C@@]534)[C@H]2CCC1=O [Example 4, (7α,14β,15β,17α)-17-(Hydroxymethyl)-4,7-dimethyl-14,15-methyleneestr-4-en-3-one]	++
CC[C@@H]1CC2=CC(=O)CC[C@@H]2[C@H]2CC[C@]3(C)[C@H](CO)C[C@H]4C[C@]43[C@H]12 [Example 5, (7α,14β,15β,17α)-7-Ethyl-17-(hydroxymethyl)-14,15-methyleneestr-4-en-3-one]	++
CC[C@]12CC[C@H]3[C@@H]([C@H](C)CC4=CC(=O)CC[C@@H]43)[C@]13C[C@@H]3C[C@H]2CO [Example 6, (7α,14β,15β,17α)-13-Ethyl-17-(hydroxymethyl)-7-methyl-14,15-methylenegon-4-en-3-one]	+++
C[C@H]1[C@H]2C[C@]23[C@H]2[C@H](CC[C@]3(C)[C@@H]1CO)[C@H]1CCC(=O)C=C1C[C@H]2C [Example 7, (7α,14β,15β16β,17α)-17-(Hydroxymethyl)-7,16-dimethyl-14,15-methyleneestra-4-en-3-one]	+
C[C@@H]1CC2=CC(=O)CC[C@@H]2[C@H]2CC[C@]3(C)[C@](O)(CO)C[C@H]4C[C@]43[C@@H]21 [Example 8, (7α,14β,15β,17β)-17-Hydroxy-17-(hydroxymethyl)-7-methyl-14,15-methyleneestr-4-en-3-one]	+
CC(=O)OC[C@]1(F)C[C@H]2C[C@]23[C@H]2[C@H](CC[C@]13C)[C@H]1CCC(=O)C=C1C[C@H]2C [Example 9a, (7α,14β,15β,17β)-17-[(Acetyloxy)methyl]-17-fluoro-7-methyl-14,15-methyleneestr-4-en-3-one]	++
C[C@@H]1CC2=CC(=O)CC[C@@H]2[C@H]2CC[C@]3(C)[C@](F)(CO)C[C@H]4C[C@]43[C@@H]21 [Example 9b, (7α,14β,15β,17β)-17-fluoro-17-(hydroxymethyl)-7-methyl-14,15-methyleneestra-4-en-3-one]	++
CC(=O)OC[C@]1(F)C[C@H]2C[C@]23[C@@H]2[C@H](C)CC4=C(CCC(=O)C4)[C@H]2CC[C@]13C [Example 10, (7α,14β,15β,17β)-17-[(Acetyloxy)methyl]-17-fluoro-7-methyl-14,15-methyleneestr-5(10)-en-3-one]	+
C[C@H](O)[C@@H]1C[C@H]2C[C@]23[C@H]2[C@H](CC[C@]13C)[C@H]1CCC(=O)C=C1C[C@H]2C [Example 11a, (7α,14β,15β,17α,20S)-20-Hydroxy-7-methyl-14,15-methylene-19-norpregn-4-en-3-one]	++
C[C@@H]1CC2=CC(=O)CC[C@@H]2[C@H]2CC[C@]3(C)[C@H]([C@@H](C)O)C[C@H]4C[C@]43[C@@H]21 [Example 11b, (7α,14β,15β,17α,20R)-20-hydroxy-7-methyl-14,15-methylene-19-norpregn-4-en-3-one]	+
C[C@@H]1CC2=CC(=O)CC[C@@H]2[C@H]2CC[C@]3(C)[C@H](C(C)(C)O)C[C@H]4C[C@]43[C@@H]21 [Example 12, (7α,14β,15β,17α)-20-Hydroxy-7,20-dimethyl-14,15-methylene-19-norpregn-4-en-3-one]	+
CC[C@H](O)[C@@H]1C[C@H]2C[C@]23[C@H]2[C@H](CC[C@]13C)[C@H]1CCC(=O)C=C1C[C@H]2C [Example 13]	+
CC(=O)OC[C@@H]1C[C@H]2C[C@]23[C@H]2[C@H](CC[C@]13C)[C@H]1CCC(=O)C=C1C[C@H]2C [Example 14]	++
C[C@@H]1CC2=C[C@@H](O)CC[C@@H]2[C@H]2CC[C@]3(C)[C@H](CO)C[C@H]4C[C@]43[C@@H]21 [Example 15a, (3β,7α,14β,15β,17α)-3-Hydroxy-7-methyl-14,15-methyleneestr-4-ene-17-methanol]	+++
C[C@@H]1CC2=C(CC[C@H](O)C2)[C@H]2CC[C@]3(C)[C@H](CO)C[C@H]4C[C@]43[C@H]12 [Example 15b1]	pro
C[C@@H]1CC2=C(CC[C@@H](O)C2)[C@H]2CC[C@]3(C)[C@H](CO)C[C@H]4C[C@]43[C@H]12 [Example 15b2, (3α,7α,14β,15β,17α)-3-Hydroxy-7-methyl-14,15-methyleneestr-5(10)-ene-17-methanol]	Pro
C[C@@H]1CC2=C[C@@H](O)CC[C@@H]2[C@H]2CC[C@]3(C)[C@](O)(CO)C[C@H]4C[C@]43[C@@H]21 [Example 15c1, (3β,7α,14β,15β,17β)-3,17-Dihydroxy-7-methyl-14,15-methyleneestr-4-ene-17methanol]	+
C[C@@H]1CC2=C[C@H](O)CC[C@@H]2[C@H]2CC[C@]3(C)[C@](O)(CO)C[C@H]4C[C@]43[C@@H]21 [Example 15c2, (3α,7α,15β,17β)-3,17-Dihydroxy-7-methyl-14,15-methyleneestr-4-ene-17-methanol]	+

Tested on: not given
Experiment: not given
Settings: not given

SMILES	melting point
C[C@@H]1CC2=CC(=O)CC[C@@H]2[C@H]2CC[C@]3(C)[C@H](CO)C[C@H]4C[C@]43[C@@H]21 [Example 1, (7α,14β,15β,17α)-17-(Hydroxymethyl)-7-methyl-14,15-methyleneestr-4-en-3-one]	137 to 140 °C
